Results as given in patent publication US8148058B2, “Method for screening allergic disease-related molecule and cell lines to be used in the method” (Tokyo University of Science Educational Foundation …, priority 2006, dated 2012).

How the values were obtained:
[1] = tested on: RCCM cells; test: Proliferation of RCCM cells, 3H-thymidine uptake; format: cell-based, mouse; conditions: 48 hours culture, then 12 hours 3H-thymidine; for proliferation of RCCM cells in response to inhibitor (uptake amount of 3H-thymidine): 1/2 serial dilutions starting with 10 ng/ml
Procedure: (§1) R cells, N62.5 cells, or RCCM cells obtained in Example 1 were placed in each well of a 96-well microplate at a seeding density of 1.5×10^4 cells/well. A culture medium in which the content of RCGF was changed was used and the sensitivities of the cells to RCGF were confirmed.
(§2) The concentrations of RCGF were set to 10 v/v %, 0.1 v/v %, and 0 v/v %. The cells were cultured in an RPMI 1640 culture medium containing 10% by volume of serum at 37° C. in 5% CO2 atmosphere for 48 hours. Thereafter, ^3H-thymidine was added to the culture medium so as to give a final concentration of 0.5 μCi/ml, and the resultant was further cultured for 12 hours and the uptake amount of ^3H during the time was measured. After the reaction, the uptake amount of ^3H-thymidine was measured using MicroBeta TRIL UX (manufactured by WALLAC). In FIGS. 1 (A) to (C), black rhombuses indicate RCCM cells, black squares indicate R cells, and black triangles indicate N62.5 cells.
R cells, N62.5 cells, or RCCM cells obtained in Example 1 were placed in each well of a 96-well microplate at a seeding density of 1.5×10^4 cells/well.
(§3) In this regard, the concentration of RCGF was based on ½ serial dilutions (starting with 80% by volume of the culture medium). […] Thereafter, ^3H-thymidine was added to the culture medium so as to give a final concentration of 0.5 μCi/ml, and the resultant was further cultured for 12 hours and the uptake amount of ^3H during the time was measured. […]
R cells, N62.5 cells, or RCCM cells obtained in Example 1 were placed in each well of a 96-well microplate at a seeding density of 1.5×10^4 cells/well in the same manner as described in Example 4. ½ serial dilutions (starting with 10 ng/ml) of phorbol 12-myristate 13 acetate (PMA) were added to each well, and culturing was performed at 37° C. in 5% CO2 atmosphere for 48 hours. Thereafter, ^3H-thymidine was added to the culture medium so as to give a final concentration of 0.5 μCi/ml, which was further cultured for 12 hours and the uptake amount of ^3H during the time was measured. […]

[2] = tested on: R cell; test: Maintenance / growth potential of R cells in culture with cytokines or RCGF; format: cell-based, mouse
Procedure: Further, anti-Thy1.2 antibodies (manufactured by Pharmingen) and complement (rabbit serum, manufactured by Pel-Freeze) were respectively added to the resulting culture at 1 μg/ml and at a final concentration of 10% by volume per 1×10^7 cells/100 μl. After about 30 minutes of reaction, […] therefrom and the cultivation was continued while the RCGF was added at various concentrations.
Thereafter, respective cell lines were cultured in accordance with the dilution method over the course of three weeks and cloned.

[3] = tested on: N62.5 cells; test: Proliferation of N62.5 cells, 3H-thymidine uptake; format: cell-based, mouse; conditions: 48 hours culture, then 12 hours 3H-thymidine
Procedure: as §1
as §2, with “cells. […]” for “cells.”
as §3

[4] = tested on: R cells; test: Proliferation of R cells, 3H-thymidine uptake; format: cell-based, mouse; conditions: 1/2 serial dilutions starting with 10 ng/ml; 48 hours culture, then 12 hours 3H-thymidine
Procedure: as §1
as §2, with “cells. […]” for “cells.”
as §3

[5] = tested on: P185 cells; test: Proliferation of P185 cells (basophil-like cell line), 3H-thymidine uptake; format: cell-based; conditions: 1/2 serial dilutions starting with 10 ng/ml; 48 hours culture, then 12 hours 3H-thymidine
Procedure: R cells, N62.5 cells, or RCCM cells obtained in Example 1 and P185 cells (a basophil-like cell line) were placed in each well of a 96-well microplate at a seeding density of 1.5×10^4 cells/well in the same manner as described in Example 4. ½ serial dilutions (starting with 10 ng/ml) of LY294002 (a PI3K inhibitor; Cat No. FA-002, manufactured by SuperArray) and Rottlerin (a PKC inhibitor; Cat No. 557370, manufactured by CALBIOCHEM) were added to each well, which was cultured at 37° C. in a 5% CO2 atmosphere for 48 hours. Thereafter, ^3H-thymidine was added to the culture medium so as to give a final concentration of 0.5 μCi/ml, and culturing was further performed for 12 hours and the uptake amount of ^3H during the time was measured. In FIGS. 7 and 8, black squares indicate R cells, black triangles indicate N62.5 cells, black rhombuses indicate RCCM cells, and black circles indicate P185. FIG. 7 is a graph showing the response of respective cells to LY294002. FIG. 8 is a graph showing the response of respective cells to Rottlerin.

## CCCCCCCCCCCCCC(=O)O[C@@H]1[C@@H](C)[C@@]2(O)[C@@H](C=C(CO)C[C@]3(O)C(=O)C(C)=C[C@@H]23)[C@@H]2C(C)(C)[C@]12OC(C)=O [PMA, phorbol 12-myristate 13 acetate]
[1]
  proliferation of RCCM cells in response to inhibitor (uptake amount of 3H-thymidine): suppressed by a low concentration

## IL-13: interleukin, Th2 type cytokine
[2]
  sensitivity / growth potential of R cell against cytokine: high growth potential

## IL-6: interleukin, Th2 type cytokine
[2]
  sensitivity / growth potential of R cell against cytokine: high growth potential

## IFN-γ: cytokine
[2]
  sensitivity / growth potential of R cell against cytokine: does not show sensitivity

## IL-5: interleukin, Th2 type cytokine
[2]
  sensitivity / growth potential of R cell against cytokine: high growth potential

## IL-9: interleukin, Th2 type cytokine
[2]
  sensitivity / growth potential of R cell against cytokine: high growth potential

## GM-CFS: cytokine
[2]
  sensitivity / growth potential of R cell against cytokine: does not show sensitivity

## CC(=O)c1c(O)c(C)c(O)c(Cc2c(O)c3c(c(C(=O)/C=C/c4ccccc4)c2O)OC(C)(C)C=C3)c1O [Rottlerin]
[3]; 1/2 serial dilutions starting with 10 ng/ml
  proliferation of N62.5 cells in response to inhibitor (uptake amount of 3H-thymidine): rapidly suppressed
[4]
  proliferation of R cells in response to inhibitor (uptake amount of 3H-thymidine): rapidly suppressed
[5]
  proliferation of basophil-like cell line P185 in response to inhibitor (uptake amount of 3H-thymidine): growth inhibition
[1]
  proliferation of RCCM cells in response to inhibitor (uptake amount of 3H-thymidine): rapidly suppressed

B1: IL-7: cytokine (protein, UniProt P13232 26-177, looked up)
Interleukin-7: DCDIEGKDGKQYESVLMVSIDQLLDSMKEIGSNCLNNEFNFFKRHICDANKEGMFLFRAARKLRQFLKMNSTGDFDLHLLKVSEGTTILLNCTGQVKGRKPAALGEAQPTKSLEENKSLKEQKKLNDLCFLKRLLQEIKTCWNKILMGTKEH
[2]
  sensitivity / growth potential of R cell against cytokine: does not show sensitivity

B2: IL-10: cytokine (protein, UniProt P22301 19-178, looked up)
Interleukin-10: SPGQGTQSENSCTHFPGNLPNMLRDLRDAFSRVKTFFQMKDQLDNLLLKESLLEDFKGYLGCQALSEMIQFYLEEVMPQAENQDPDIKAHVNSLGENLKTLRLRLRRCHRFLPCENKSKAVEQVKNAFNKLQEKGIYKAMSEFDIFINYIEAYMTMKIRN
[2]
  sensitivity / growth potential of R cell against cytokine: does not show sensitivity

B3: IL-4: recombinant cytokine, manufactured by PeproTech (protein, UniProt P05112 25-153, looked up)
Interleukin-4: HKCDITLQEIIKTLNSLTEQKTLCTELTVTDIFAASKNTTEKETFCRAATVLRQFYSHHEKDTRCLGATAQQFHRHKQLIRFLKRLDRNLWGLAGLNSCPVKEANQSTLENFLERLKTIMREKYSKCSS
[3]; various concentrations
  proliferative response of N62.5 cells to RCGF / cytokines (uptake amount of 3H-thymidine): did not show sensitivity
[2]
  sensitivity / growth potential of R cell against cytokine: high growth potential
[1]; various concentrations
  proliferative response of RCCM cells to RCGF / cytokines (uptake amount of 3H-thymidine): no difference in growth potential
